The subject of one assay is natural aging AD mice. The experiment in a line: Behaviour tests in naturally aged mice with AD. In kind it is in vivo. How it is done:
Each group had 10 mice. GENI was dissolved in ultrapure water and administered by gavage, whereas Dor was dissolved in normal saline. The pH was adjusted to pH 5 with 0.1 M hydrochloric acid to the clarified solution and administered by intraperitoneal injection. The dosing experiment also lasted 10 weeks. Animal behavioral experiments and sampling at the end of the animal experiment were performed as described above.
(§1) The Y-maze is mainly used to study the spatial working memory ability of rodents. The Y-maze consisted of three equal-length arms (50 cm × 18 cm × 35 cm), and the angle between each two arms was 120 degrees. The mice were placed at the end of any arm of the Y-maze and allowed to explore freely for 8 min. The behavioral changes including the total number of entries and alternation (successively entering all three arms of the Y-maze once in turn) were recorded. Percentage altercation = alternation/(entries-2) × 100%. The Y-maze could effectively reflect the ability of animals to recognize and remember novel environments.
(§2) NOR was used to detect memory in rodents. We prepared a 40 × 40 × 40 cm square box, camera equipment, and behavioral analysis software. We chose three objects A, B, and C, where objects A and B were exactly the same, and object C was very different from objects A and B. After the start of the experiment, the mice were allowed to acclimate freely in the experimental apparatus for 10 min. Objects A and B were placed into the box, and the mice were allowed to explore for 5 min. We then recorded the exploration time and times. After 1 h, A and C or B and C were placed into the box. After letting the mice explore for 5 min, we recorded the exploration time of the original object and the new object. Discrimination index = exploration time of new objects/total exploration time × 100%.
(§3) The MWM installation consisted of a circular pool (120 cm in diameter and 50 cm in height), camera equipment, and a computer analysis system. In the first stage, the platform position was fixed, and mice were placed into the pool from any three of the four origins on the pool facing away from the pool wall. The time when it took for the mouse to find the platform within 120 s, called escape latency, was recorded. The training period lasted 4 days. The escape latency of the mice was recorded daily, and the average value was used as an index to evaluate the ability of learning and memory. On the 5th day, the platform was evacuated by the experimenter. The mice were placed against the platform into the water from any water entry point, and they were allowed to swim freely for 60 s. We then recorded the number of times that they crossed the platform.

In another assay the test system is PC12 cells. Put plainly: ROS assay (DCFH-DA) in PC12 cells. The class given is cell-based. To be noted: GENI 1, 3 and 10 μM 24 h, 0.8 mM H2O2 1 h. How it is done:
To determine ROS levels in PC12 cells, we seeded 5 × 10^4 PC12 cells in each well of a 24-well plate. Cells were treated with RES (10 μM) or GENI (1, 3, and 10 μM) for 24 h, followed by 0.8 mM H2O2 for 1 h. DCFH-DA (2,7-dichlorodihydrofluorescein diacetate, final concentration, 10 μM) was then added to each well and incubated for 30 min. Cells were washed with PBS to remove extracellular DCFH-DA, and intercellular ROS was detected by using a SpectraMax M3 multimode microplate reader (Molecular Devices Corporation, San Jose, CA, USA) at an excitation wavelength of 488 nm and an emission wavelength of 525 nm. Meanwhile, DCF in PC12 cells was observed using a fluorescence microscope (HCS, Thermo Fisher, Science, Waltham, MA, USA). To detect malondialdehyde (MDA) content and total SOD enzymatic activities in PC12 cells, we seeded 2 × 10^6 PC12 cells in 60 mm dishes containing 5 mL of DMEM and cultured the cells for 24 h. PC12 cells were treated with RES (10 μM) or GENI (3 or 10 μM) for 24 h and then treated with 0.8 mM H2O2 for 1 h to determine the MDA content and total superoxide dismutase (SOD) activities. Cells were lysed and centrifuged. […] MDA quantification and total SOD activities were determined using MDA and SOD enzyme activity assay kits (Nanjing Jiancheng Bioengineering Institute, Nanjing, China) following the manufacturer’s instructions.

The next assay relates to D-gal-induced AD mice. Put plainly: Behaviour tests in D-gal-induced AD mice. In kind it is in vivo. Here is the method:
Each group comprised 10 mice. […] Dosing lasted for 10 weeks. […] The mice were sacrificed after 10 weeks of administration.
as §1, §2, §3
The rationale for the three-box social test is based on the fact that mice are naturally gregarious and tend to explore new objects. The experimental device consisted of three rectangular boxes, each with a size of 19×45 cm, with a channel in the middle to allow the three boxes to connect with one another. Two metal cages of the same size were placed in the centre of the left and right boxes. Firstly, the mice were placed in the box for 10 min. Secondly, stranger 1 mouse was randomly placed in the metal cage in the left or right box, and the metal cage in the other box was empty. The experimental mice were placed in the box for 10 min. The number and duration of direct contact between the experimental mice and stranger 1 were recorded. Thirdly, strange 2 mice were placed in the empty metal cage of the second stage experiment and then recorded for 10 min. We observed the time and number of contacts between stranger 1 and stranger 2 and calculated the social preference and sociability index.

For the next assay, the system named is MAPK. The experiment in a line: Drug affinity responsive target stability (DARTS), MAPK. To be noted: 0.1–100 μM GENI, protein: pronase 5:1. The class given is binding. How it is done: (§4) Cells were lysed by RIPA lysis buffer, and the protein concentration was measured. The lysate was divided into six groups. Before incubation with protease (protein: pronase = 50:1 w/w for PI3K and AMPK detection, 5:1 for MAPK detection, 100:1 for p53 detection) for 25 min in 25 °C, 0.1–100 μM GENI was added to lysates and incubated for 2 h at room temperature. The samples were mixed with loading buffer and then separated on 8% SDS-PAGE for immunoblotting analysis.

The test system of assay [1] is AMPK. Put plainly: Drug affinity responsive target stability (DARTS), AMPK. The class given is binding. To be noted: 0.1–100 μM GENI, protein: pronase 50:1. How it is done: as §4
Assay [2] relates to AMPK. The experiment in a line: Cellular thermal shift assay (CETSA) in PC12 cells, AMPK. In kind it is binding. The note with it: 10 μM GENI 2 h, 60 °C to 80 °C. How it is done:
In a 60 mm dish containing 5 mL of DMEM, 2 × 10^6 cells were added and incubated for 24 h. In each plate, 10 μM GENI was added and incubated for 2 h. Cells were harvested and heated at a temperature ranging from 60 °C to 80 °C for PC12 cell samples. We obtained a certain amount of cerebral cortex and hippocampus samples, which were added with PBS and ground. After centrifugation, the supernatant was used as a sample, and we measured the protein concentration with a BCA kit (CoWin Biotech Co., Ltd., Taizhou, Jiangsu, China). The protein of the cerebral cortex or hippocampus was incubated with 10 μM GENI at 37 °C for 2 h and heated from 65 °C to 100 °C for the cerebral cortex sample but 43 °C to 67 °C and 65 °C to 100 °C for the hippocampus sample. Equal volumes of supernatant heated at each temperature point for the control and treatment groups were used for Western blot analysis with the antibody for specific proteins.

[3] abbreviates: GENI administration group compared with the D-gal model group.

As to `CC(C)CCOC(=O)C1=CO[C@@H](O[C@@H]2O[C@H](CO)[C@@H](O)[C@H](O)[C@H]2O)C2C(CO)=CCC12` (stereo partly shown) [GENI, Geniposidic 4-isoamyl ester], in the assay on natural aging AD mice (GENI 25 mg/kg), the “escape latency, first 4 days of the training phase, water maze test” value is listed as “significantly reduce” and the “number of crossing platforms, fifth day, water maze test” value was “increase”. The “cognitive function (alternating arm entry rate, novel object recognition index) in Y maze and NOR tests” value in the assay on natural aging AD mice (GENI 25 mg/kg intragastrically once a day) is “improvement”. The “H2O2-induced increase in ROS” value in the assay on PC12 cells is “significantly reduce”. For the same compound, in the assay on D-gal-induced AD mice (GENI 25 and 50 mg/kg i.g., versus D-gal group), the “rate of alternating arms in the Y maze test” value is listed as “significantly increase”. Further, in the assay on D-gal-induced AD mice (setting [3]), the “escape latency in the Morris water maze test” value was “significantly reduced” and the “number of crossing platforms in the Morris water maze test” value is reported as “significantly increased”. Further, the “cognitive index and object recognition index in the NOR experiment” value in the assay on D-gal-induced AD mice (GENI i.g., versus D-gal group) is on record as “significantly increased”. The “sociability and social preferences (three-box social experiment)” value in the assay with D-gal-induced AD mice (GENI-administered groups) was “significant social skills and social preferences”. Also, in the assay on D-gal-induced AD mice (comparable to the effect of DON at a dose of 3 mg/kg), the “optimal dose for anti-AD effect” value is 25 mg/kg. Further, in the assay with MAPK, the “stability of MAPK against pronase (DARTS)” value is listed as “dramatically enhanced the stability”. Further, the “stability of AMPK against pronase (DARTS)” value with AMPK [1] is recorded as “dramatically enhanced the stability”. The “thermal stability of AMPK (CETSA)” value in the assay on AMPK [2] is recorded as “sensibly increase the thermal stability”.

The record behind these values is paper PMC11763059, “GENI as an AMPK Activator Binds α and γ Subunits and Improves the Memory Dysfunction of Alzheimer’s Disease Mouse Models via Autophagy and Neuroprotection” (Antioxidants, 2025).
